Source: US7576222B2, “Alkynyl-containing tryptophan derivative inhibitors of TACE/matrix metalloproteinase” (priority 2004, dated 2009)

target: T1, catalytic domain of the recombinant TACE protein (Homo sapiens, UniProt P78536); assay: TACE FRET assay using TACE cat; type: biochemical; conditions: not given
T1 construct: The catalytic domain of the recombinant TACE protein was expressed and purified; made in house
Description: TACE FRET Assay Using TACE Cat
“K” is the IC50. Generally, “n” and “B” are floated, noting that n (Hill slope) should be close to 1 and B (background offset) to 0.
Pro-TNF-α substrate peptide Abz-[…]-Dpa (AnaSpec, San Jose, Calif., WARC-1) was prepared as a 2 mM stock solution in the TACE assay buffer (50 mM Tris-HCl, pH 7.4, 25 mM NaCl, 4% Glycerol, 0.005% Brij 35). The catalytic domain of the recombinant TACE protein was expressed and purified. The TACE protein (1 ug/ml) was pretreated with the inhibitors at various concentrations for 10 min. at room temperature. The reaction was initiated by the addition of the substrate peptide. […] The initial rate (slope) of the reaction was determined using a fluorescence plate reader (Molecular Devices, Spectra Max Gemini XS).

T1 sequence (P78536 223-474 limits assumed): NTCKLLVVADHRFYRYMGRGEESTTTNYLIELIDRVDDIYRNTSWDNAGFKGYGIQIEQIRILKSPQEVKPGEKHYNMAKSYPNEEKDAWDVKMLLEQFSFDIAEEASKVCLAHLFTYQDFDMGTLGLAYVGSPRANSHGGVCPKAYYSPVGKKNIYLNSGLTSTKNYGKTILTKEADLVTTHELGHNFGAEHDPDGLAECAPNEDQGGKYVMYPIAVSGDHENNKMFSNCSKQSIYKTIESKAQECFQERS

In order of falling IC50:
1. CC#CCOc1ccc(S(=O)(=O)N[C@H](Cc2cn(Cc3ccc(C#N)cc3)c3ccccc23)C(=O)O)cc1 [Example 45, N-{[4-(but-2-ynyloxy)phenyl]sulfonyl}-1-(4-cyanobenzyl)-D-tryptophan]  4040 nM
2. CC#CCOc1ccc(S(=O)(=O)N[C@@H](Cc2c[nH]c3cc(F)ccc23)C(=O)O)cc1 [Example 7, N-{[4-(but-2-ynyloxy)phenyl]sulfonyl}-6-fluorotryptophan]  2960 nM
3. CC#CCOc1ccc(S(=O)(=O)N[C@@H](Cc2cn(Cc3cccc(OC)c3)c3ccc(OC)cc23)C(=O)O)cc1 [Example 52, N-{[4-(but-2-ynyloxy)phenyl]sulfonyl}-5-methoxy-1-(3-methoxybenzyl)tryptophan]  2240 nM
4. CC#CCOc1ccc(S(=O)(=O)N[C@@H](Cc2cn(Cc3ccccc3F)c3ccc(OC)cc23)C(=O)O)cc1 [Example 58, N-{[4-(but-2-ynyloxy)phenyl]sulfonyl}-1-(2-fluorobenzyl)-5-methoxytryptophan]  2240 nM
5. CC#CCOc1ccc(S(=O)(=O)N[C@@H](Cc2cn(Cc3cccc(C(F)(F)F)c3)c3ccc(OC)cc23)C(=O)O)cc1 [Example 56, N-{[4-(but-2-ynyloxy)phenyl]sulfonyl}-5-methoxy-1-[3-(trifluoromethyl)benzyl]tryptophan]  2070 nM
6. CC#CCOc1ccc(S(=O)(=O)N[C@H](Cc2cn(CC3CCCCC3)c3ccccc23)C(=O)O)cc1 [Example 23, N-{[4-(but-2-ynyloxy)phenyl]sulfonyl}-1-(cyclohexylmethyl)-D-tryptophan]  1710 nM
7. CC#CCOc1ccc(S(=O)(=O)N[C@@H](Cc2c[nH]c3ccc(O)cc23)C(=O)O)cc1 [Example 5, N-{[4-(but-2-ynyloxy)phenyl]sulfonyl}-5-hydroxytryptophan]  1610 nM
8. CC#CCOc1ccc(S(=O)(=O)N[C@@H](Cc2c[nH]c3cc(C)ccc23)C(=O)O)cc1 [Example 8, N-{[4-(but-2-ynyloxy)phenyl]sulfonyl}-6-methyltryptophan]  1570 nM
9. CC#CCOc1ccc(S(=O)(=O)N[C@@H](Cc2c[nH]c3ccc(F)cc23)C(=O)O)cc1 [Example 3, N-{[4-(but-2-ynyloxy)phenyl]sulfonyl}-5-fluorotryptophan]  1560 nM
10. CC#CCOc1ccc(S(=O)(=O)N[C@@H](Cc2cn(Cc3ccc4c(c3)OCO4)c3ccc(OC)cc23)C(=O)O)cc1 [Example 65, 1-(1,3-benzodioxol-5-ylmethyl)-N-{[4-(but-2-ynyloxy)phenyl]sulfonyl}-5-methoxytryptophan]  1500 nM
11. CC#CCOc1ccc(S(=O)(=O)N[C@H](Cc2cn(C)c3ccccc23)C(=O)O)cc1 [Example 21, N-{[4-(but-2-ynyloxy)phenyl]sulfonyl}-1-methyl-D-tryptophan]  1400 nM
12. CC#CCOc1ccc(S(=O)(=O)N[C@@H](Cc2cn(CC(C)C)c3ccc(OC)cc23)C(=O)O)cc1 [Example 67, N-{[4-(but-2-ynyloxy)phenyl]sulfonyl}-1-isobutyl-5-methoxytryptophan]  1230 nM

same assay, conditions: TACE FRET assay, catalytic domain of recombinant TACE; read-out: TACE IC50

In order of rising IC50:
1. CC#CCOc1ccc(S(=O)(=O)N[C@H](Cc2cn(Cc3cc(OC)cc(OC)c3)c3ccccc23)C(=O)O)cc1 [Example 36, N-{[4-(but-2-ynyloxy)phenyl]sulfonyl}-1-(3,5-dimethoxybenzyl)-D-tryptophan]  980 nM
2. CC#CCOc1ccc(S(=O)(=O)N[C@@H](Cc2cn(Cc3ccc(OC)cc3)c3ccccc23)C(=O)O)cc1 [Example 19, N-{[4-(but-2-ynyloxy)phenyl]sulfonyl}-1-(4-methoxybenzyl)-L-tryptophan]  1190 nM
3. CC#CCOc1ccc(S(=O)(=O)N[C@H](Cc2cn(Cc3ccccc3)c3ccccc23)C(=O)O)cc1 [Example 25, 1-benzyl-N-{[4-(but-2-ynyloxy)phenyl]sulfonyl}-D-tryptophan]  2150 nM
4. CC#CCOc1ccc(S(=O)(=O)N[C@H](Cc2cn(Cc3cccc(C(F)(F)F)c3)c3ccccc23)C(=O)O)cc1 [Example 40, N-{[4-(but-2-ynyloxy)phenyl]sulfonyl}-1-[3-(trifluoromethyl)benzyl]-D-tryptophan]  2300 nM
5. CC#CCOc1ccc(S(=O)(=O)N[C@H](Cc2cn(CCCCC)c3ccccc23)C(=O)O)cc1 [Example 22, N-{[4-(but-2-ynyloxy)phenyl]sulfonyl}-1-pentyl-D-tryptophan]  2310 nM
6. CC#CCOc1ccc(S(=O)(=O)N[C@H](Cc2c[nH]c3ccccc23)C(=O)O)cc1 [Example 1, N-{[4-(but-2-ynyloxy)phenyl]sulfonyl}-D-tryptophan]  2530 nM
7. CC#CCOc1ccc(S(=O)(=O)N[C@H](Cc2cn(Cc3ccc(Cl)cc3)c3ccccc23)C(=O)O)cc1 [Example 42, N-{[4-(but-2-ynyloxy)phenyl]sulfonyl}-1-(4-chlorobenzyl)-D-tryptophan]  3450 nM
8. CC#CCOc1ccc(S(=O)(=O)N[C@H](Cc2cn(Cc3ccc(C)cc3)c3ccccc23)C(=O)O)cc1 [Example 26, N-{[4-(but-2-ynyloxy)phenyl]sulfonyl}-1-(4-methylbenzyl)-D-tryptophan]  3590 nM
9. CC#CCOc1ccc(S(=O)(=O)N[C@H](Cc2cn(Cc3ccc(C(F)(F)F)cc3)c3ccccc23)C(=O)O)cc1 [Example 41, N-{[4-(but-2-ynyloxy)phenyl]sulfonyl}-1-[4-(trifluoromethyl)benzyl]-D-tryptophan]  4400 nM
10. CC#CCOc1ccc(S(=O)(=O)N[C@@H](Cc2c[nH]c3ccccc23)C(=O)O)cc1 [Example 2, N-{[4-(but-2-ynyloxy)phenyl]sulfonyl}-L-tryptophan]  8200 nM

same assay, conditions: read-out: TACE Inhibition (%)

In order of falling inhibition at 1 µM:
1. CC#CCOc1ccc(S(=O)(=O)N[C@@H](Cc2cn(Cc3cccc(F)c3)c3ccc(OC)cc23)C(=O)O)cc1 [Example 59, N-{[4-(but-2-ynyloxy)phenyl]sulfonyl}-1-(3-fluorobenzyl)-5-methoxytryptophan]  44.4%
2. CC#CCOc1ccc(S(=O)(=O)N[C@@H](Cc2cn(Cc3ccc(F)cc3)c3ccc(OC)cc23)C(=O)O)cc1 [Example 60, N-{[4-(but-2-ynyloxy)phenyl]sulfonyl}-1-(4-fluorobenzyl)-5-methoxytryptophan]  43.5%
3. CC#CCOc1ccc(S(=O)(=O)N[C@@H](Cc2cn(Cc3ccccc3C#N)c3ccc(OC)cc23)C(=O)O)cc1 [Example 64, N-{[4-(but-2-ynyloxy)phenyl]sulfonyl}-1-(2-cyanobenzyl)-5-methoxytryptophan]  40.9%
4. CC#CCOc1ccc(S(=O)(=O)N[C@@H](Cc2cn(Cc3cc(F)cc(F)c3)c3ccc(OC)cc23)C(=O)O)cc1 [Example 61, N-{[4-(but-2-ynyloxy)phenyl]sulfonyl}-1-(3,5-difluorobenzyl)-5-methoxytryptophan]  39.5%
5. CC#CCOc1ccc(S(=O)(=O)N[C@@H](Cc2cn(Cc3ccc(Cl)cc3)c3ccc(OC)cc23)C(=O)O)cc1 [Example 62, N-{[4-(but-2-ynyloxy)phenyl]sulfonyl}-1-(4-chlorobenzyl)-5-methoxytryptophan]  39.3%
6. CC#CCOc1ccc(S(=O)(=O)N[C@@H](Cc2cn(Cc3ccccc3C)c3ccc(OC)cc23)C(=O)O)cc1 [Example 49, N-{[4-(but-2-ynyloxy)phenyl]sulfonyl}-5-methoxy-1-(2-methylbenzyl)tryptophan]  38.9%
7. CC#CCOc1ccc(S(=O)(=O)N[C@@H](Cc2cn(Cc3ccccc3OC)c3ccc(OC)cc23)C(=O)O)cc1 [Example 51, N-{[4-(but-2-ynyloxy)phenyl]sulfonyl}-5-methoxy-1-(2-methoxybenzyl)tryptophan]  38.3%
8. CC#CCOc1ccc(S(=O)(=O)N[C@@H](Cc2cn(Cc3cc(OC)cc(OC)c3)c3ccc(OC)cc23)C(=O)O)cc1 [Example 54, N-{[4-(but-2-ynyloxy)phenyl]sulfonyl}-1-(3,5-dimethoxybenzyl)-5-methoxytryptophan]  38%
9. CC#CCOc1ccc(S(=O)(=O)N[C@@H](Cc2cn(Cc3ccccc3)c3ccc(OC)cc23)C(=O)O)cc1 [Example 48, 1-benzyl-N-{[4-(but-2-ynyloxy)phenyl]sulfonyl}-5-methoxytryptophan]  37.2%
10. CC#CCOc1ccc(S(=O)(=O)N[C@@H](Cc2cn(Cc3ccc(C(F)(F)F)cc3)c3ccc(OC)cc23)C(=O)O)cc1 [Example 57, N-{[4-(but-2-ynyloxy)phenyl]sulfonyl}-5-methoxy-1-[4-(trifluoromethyl)benzyl]tryptophan]  32.1%
11. CC#CCOc1ccc(S(=O)(=O)N[C@@H](Cc2cn(Cc3ccccc3C(F)(F)F)c3ccc(OC)cc23)C(=O)O)cc1 [Example 55, N-{[4-(but-2-ynyloxy)phenyl]sulfonyl}-5-methoxy-1-[2-(trifluoromethyl)benzyl]tryptophan]  31.3%
12. CC#CCOc1ccc(S(=O)(=O)N[C@@H](Cc2cn(Cc3cccc(C)c3)c3ccc(OC)cc23)C(=O)O)cc1 [Example 50, N-{[4-(but-2-ynyloxy)phenyl]sulfonyl}-5-methoxy-1-(3-methylbenzyl)tryptophan]  30.6%
13. CC#CCOc1ccc(S(=O)(=O)N[C@@H](Cc2cn(Cc3ccc(OC)cc3)c3ccc(OC)cc23)C(=O)O)cc1 [Example 53, N-{[4-(but-2-ynyloxy)phenyl]sulfonyl}-5-methoxy-1-(4-methoxybenzyl)tryptophan]  30.6%
14. CC#CCOc1ccc(S(=O)(=O)N[C@@H](Cc2cn(Cc3ccc(C(C)C)cc3)c3ccc(OC)cc23)C(=O)O)cc1 [Example 63, N-{[4-(but-2-ynyloxy)phenyl]sulfonyl}-1-(4-isopropylbenzyl)-5-methoxytryptophan]  28.2%
